Data: patent publication US20040110802A1, “Antibacterial benzoic acid derivatives” (priority 2002, published 2004)
Converted amounts (≈) assume the structure as drawn.

Test system: SAUR 9218
Assay: MIC Test Method, standard agar dilution
Type: cell-based
Conditions: agar dilution, Mueller Hinton agar, incubated overnight at 35° C.; lowest concentration that inhibits visible growth; read-out: SAUR 9218 MIC
Method in brief: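 MIC (μg/ml) was read as the lowest drug level without visible growth of SAUR 9218 after overnight incubation at 35 °C. Inocula of about 10^4 to 10^5 cells per spot were applied to Mueller Hinton agar containing 2-fold serial compound dilutions.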

Row | MIC [µg/mL] | Structure (SMILES)
1 | 8 (≈ 15.5 µM) | O=C(O)c1cc(Br)ccc1NC(=O)c1cccc2c1CCN(Cc1ccccc1)S2(=O)=O
2 | > 128 | O=C(Nc1ccc(Br)cc1C(=O)O)c1cnc(CC(O)[C@H](O)CO)cn1 (stereo partly shown)
3 | 16 (≈ 50.1 µM) | Cn1cc(C(=O)Nc2ccc(C#N)cc2C(=O)O)c2ccccc21
4 | > 128 | COc1ncc(C#Cc2cncc(C(=O)Nc3ccc(C#N)cc3C(=O)O)c2)c(OC)n1
5 | 64 (≈ 182 µM) | N#Cc1ccc(NC(=O)c2ccc(N3CCOCC3)nc2)c(C(=O)O)c1
6 | 0.06 (≈ 0.0957 µM) | Cn1c(C(=O)Nc2ccc(C#N)cc2C(=O)O)cc2ccc(N(S(=O)(=O)c3cccs3)S(=O)(=O)c3cccs3)cc21
7 | 0.125 (≈ 0.246 µM) | N#Cc1ccc(NC(=O)c2cc3cccc(NC(=O)Cc4ccc(Cl)c(Cl)c4)c3[nH]2)c(C(=O)O)c1
8 | 0.125 (≈ 0.326 µM) | CCCCC(C)Sc1ccc(C(=O)Nc2ccc(C#N)cc2C(=O)O)cn1 (stereo not shown)
9 | 0.25 (≈ 0.714 µM) | CN(C)c1ccc2onc(C(=O)Nc3ccc(C#N)cc3C(=O)O)c2c1
10 | 4 (≈ 13.1 µM) | N#Cc1ccc(NC(=O)c2nc3ccccc3[nH]2)c(C(=O)O)c1
11 | 0.5 (≈ 1.01 µM) | CC(C)(C)c1ccc(CC(=O)Nc2cccc3cc(C(=O)Nc4ccc(C#N)cc4C(=O)O)[nH]c23)cc1
12 | 0.5 (≈ 0.98 µM) | O=C(O)c1cc(Br)ccc1NC(=O)c1noc2ccc(S(=O)(=O)N3CCOCC3)cc12
13 | 4 (≈ 14.7 µM) | Cc1cc(C(=O)Nc2ccc(C#N)cc2C(=O)O)no1
14 | 2 (≈ 3.76 µM) | Cn1c(C(=O)Nc2ccc(C#N)cc2C(=O)O)cc2c(Br)ccc(NC(=O)Cc3ccccc3)c21
15 | 0.5 (≈ 1.3 µM) | O=C(Nc1ccc(Cl)cc1C(=O)O)c1cc(CCCc2ccccc2)on1
16 | 128 (≈ 382 µM) | COc1ccc2[nH]c(C(=O)Nc3ccc(C#N)cc3C(=O)O)cc2c1
17 | 8 (≈ 15 µM) | Cc1sc(C(=O)Nc2ccc(C#N)cc2C(=O)O)cc1S(=O)(=O)N1CCC(C#N)(c2ccccc2)CC1
18 | 8 (≈ 16 µM) | CC12CCC(C(=O)Nc3cccc4cc(C(=O)Nc5ccc(C#N)cc5C(=O)O)[nH]c34)(OC1=O)C2(C)C (stereo not shown)
19 | 0.25 (≈ 0.692 µM) | O=C(O)c1cc(Br)ccc1NC(=O)c1noc2ccccc12

Row | MIC [µg/mL] | Structure (SMILES)
20 | 0.125 (≈ 0.262 µM) | N#Cc1ccc(NC(=O)c2noc3ccc(NS(=O)(=O)Cc4ccccc4)cc23)c(C(=O)O)c1
21 | 0.5 (≈ 1.38 µM) | COCCn1c(C(=O)Nc2ccc(C#N)cc2C(=O)O)cc2ccccc21
22 | 0.25 (≈ 0.596 µM) | N#Cc1ccc(NC(=O)c2cc(-c3ccccc3OC3CCOC3)on2)c(C(=O)O)c1 (stereo not shown)
23 | 1 (≈ 1.98 µM) | Cn1c(C(=O)Nc2ccc(C#N)cc2C(=O)O)c(Br)c2cccc(OCc3ccccc3)c21
24 | 0.25 (≈ 0.642 µM) | Cn1c(C(=O)Nc2ccc(C#N)cc2C(=O)O)cc2ccc(OCC3CC3)cc21
25 | 0.5 (≈ 1.36 µM) | N#Cc1ccc(NC(=O)c2ccc(SC3CCCC3)nc2)c(C(=O)O)c1
26 | 0.5 (≈ 1.02 µM) | N#Cc1ccc(NC(=O)c2ccc(SCC(=O)c3ccc4c(c3)C(=O)NCO4)nn2)c(C(=O)O)c1
27 | 0.5 (≈ 1.04 µM) | Cn1cnc(S(=O)(=O)Nc2cccc3cc(C(=O)Nc4ccc(C#N)cc4C(=O)O)n(C)c23)c1
28 | 8 (≈ 17.9 µM) | Cc1sc(C(=O)Nc2ccc(C#N)cc2C(=O)O)cc1S(=O)(=O)N1CCC(C)CC1
29 | 0.25 (≈ 0.693 µM) | O=C(Nc1ccc(Cl)cc1C(=O)O)c1cc(-c2ccccc2F)on1
30 | 0.25 (≈ 0.72 µM) | Cc1c(C(=O)Nc2ccc(C#N)cc2C(=O)O)noc1-c1ccccc1
31 | 0.5 (≈ 1.11 µM) | O=C(Nc1ccc(I)cc1C(=O)O)c1cc(-c2ccccc2F)on1
32 | 0.25 (≈ 0.512 µM) | N#Cc1ccc(NC(=O)c2cc3cccc(NC(=O)Cc4ccc5ccccc5c4)c3[nH]2)c(C(=O)O)c1
33 | 64 (≈ 148 µM) | O=C(Nc1ccc(Br)cc1C(=O)O)c1ccc(-c2ccc([N+](=O)[O-])cc2)o1
34 | 8 (≈ 23.1 µM) | N#Cc1ccc(NC(=O)c2cncc(Br)c2)c(C(=O)O)c1
35 | > 128 | COc1ccc(-c2cc(C(=O)Nc3ccc(Br)cc3C(=O)O)nn2C)cc1
36 | > 128 | O=C(Nc1ccc(Br)cc1C(=O)O)c1ccco1
37 | 64 (≈ 125 µM) | Cc1sc(C(=O)Nc2ccc(C#N)cc2C(=O)O)cc1S(=O)(=O)N1CCN(c2ncccn2)CC1
38 | > 128 | N#Cc1ccc(NC(=O)c2cc3cccc(NC(=O)c4csc(SCc5ccccc5)n4)c3[nH]2)c(C(=O)O)c1

Row | MIC [µg/mL] | Structure (SMILES)
39 | 32 (≈ 57.6 µM) | CN(CC(O)C(O)C(O)C(O)CO)C(=O)Nc1cccc2cc(C(=O)Nc3ccc(C#N)cc3C(=O)O)n(C)c12 (stereo not shown)
40 | 0.25 (≈ 0.703 µM) | CCCCSc1ccc(C(=O)Nc2ccc(C#N)cc2C(=O)O)cn1
41 | 0.25 (≈ 0.507 µM) | Cc1noc(C)c1S(=O)(=O)Nc1cccc2cc(C(=O)Nc3ccc(C#N)cc3C(=O)O)n(C)c12
42 | 0.25 (≈ 0.582 µM) | O=C(Nc1ccc(Br)cc1C(=O)O)c1cc(CCCc2ccccc2)on1
43 | 2 (≈ 5.95 µM) | Cn1cccc1-c1cnc(C(=O)Nc2ccc(C#N)cc2C(=O)O)o1
44 | 0.25 (≈ 0.579 µM) | N#Cc1ccc(NC(=O)c2ccc(SCc3nsc(Cl)n3)nc2)c(C(=O)O)c1
45 | 1 (≈ 2.4 µM) | COc1cccc(-c2cnc(C(=O)Nc3ccc(Br)cc3C(=O)O)o2)c1
46 | 0.5 (≈ 1.04 µM) | CCOc1ccc(CC(=O)Nc2cccc3cc(C(=O)Nc4ccc(C#N)cc4C(=O)O)[nH]c23)cc1
47 | 0.5 | CCSc1ccc(C(=O)Nc2ccc(C#N)cc2C(=O)O)cn1.Cl
48 | 0.125 (≈ 0.255 µM) | Cn1c(C(=O)Nc2ccc(C#N)cc2C(=O)O)cc2cccc(N(S(C)(=O)=O)S(C)(=O)=O)c21
49 | 2 (≈ 6.19 µM) | N#Cc1ccc(NC(=O)c2ncc(-c3ccco3)o2)c(C(=O)O)c1
50 | 0.125 (≈ 0.321 µM) | Cn1c(C(=O)Nc2ccc(C#N)cc2C(=O)O)cc2cccc(OCC3CC3)c21
51 | 1 (≈ 2.27 µM) | N#Cc1ccc(NC(=O)c2noc3ccc(NC(=O)Cc4ccccc4)cc23)c(C(=O)O)c1
52 | 64 (≈ 164 µM) | N#Cc1ccc(NC(=O)c2cncc(SCc3ccccc3)n2)c(C(=O)O)c1
53 | 8 (≈ 13.7 µM) | O=C(Nc1ccc(Cl)cc1C(=O)O)c1cc(-c2ccccc2NS(=O)(=O)c2ccc(OC(F)(F)F)cc2)on1
54 | 0.25 (≈ 0.746 µM) | COc1cccc2[nH]c(C(=O)Nc3ccc(C#N)cc3C(=O)O)cc12
55 | 0.25 (≈ 0.62 µM) | CC(Sc1ccc(C(=O)Nc2ccc(C#N)cc2C(=O)O)cn1)c1ccccc1 (stereo not shown)
56 | 0.125 (≈ 0.286 µM) | CCCCCCSc1ccc(C(=O)Nc2ccc(Br)cc2C(=O)O)cn1
57 | > 128 | O=C(O)c1cc(Br)ccc1NC(=O)c1cccnc1Cl

Continued, molecule first:

Row | Structure (SMILES) | MIC [µg/mL]
58 | N#Cc1ccc(NC(=O)c2cc3cccc4c3n2CCC4=O)c(C(=O)O)c1 | 1 (≈ 2.78 µM)
59 | Cc1c(S(=O)(=O)Nc2ccc3c(c2)OCCO3)csc1C(=O)Nc1ccc(Br)cc1C(=O)O | 16 (≈ 28.9 µM)
60 | Cn1c(C(=O)Nc2ccc(C#N)cc2C(=O)O)cc2cccc(Br)c21 | 0.5 (≈ 1.26 µM)
61 | CCO/N=C1\CCn2c(C(=O)Nc3ccc(C#N)cc3C(=O)O)cc3cccc1c32 | 1 (≈ 2.49 µM)
62 | O=C(O)c1cc(Cl)ccc1NC(=O)c1cc2ccccc2n1CCCc1ccccc1 | 4 (≈ 9.24 µM)
63 | Cc1sc(C(=O)Nc2ccc(Br)cc2C(=O)O)cc1S(=O)(=O)NC1CCN(Cc2ccccc2)CC1 | > 128
64 | O=C(O)c1cc(Br)ccc1NC(=O)c1ccnc2ccccc12 | > 128
65 | Cn1c(C(=O)Nc2ccc(C#N)cc2C(=O)O)cc2cccc(-c3ccccc3C(F)(F)F)c21 | 0.06 (≈ 0.129 µM)
66 | COCCNc1ccc2onc(C(=O)Nc3ccc(C#N)cc3C(=O)O)c2c1 | 1 (≈ 2.63 µM)
67 | O=C(O)c1cc(Br)ccc1NC(=O)c1noc2ccc(S(=O)(=O)N3CCCC3)cc12 | 0.25 (≈ 0.506 µM)
68 | Cn1c(C(=O)Nc2ccc(C#N)cc2C(=O)O)cc2cccc(-c3ccc(S(C)(=O)=O)cc3)c21 | 8 (≈ 16.9 µM)
69 | Cn1c(C(=O)Nc2cccc3cc(C(=O)Nc4ccc(C#N)cc4C(=O)O)[nH]c23)cc2ccccc21 | 0.125 (≈ 0.262 µM)
70 | N#Cc1ccc(NC(=O)c2cc(CO)on2)c(C(=O)O)c1 | 8 (≈ 27.9 µM)
71 | CCCCS(=O)(=O)N(c1ccc2cc(C(=O)Nc3ccc(C#N)cc3C(=O)O)n(C)c2c1)S(=O)(=O)CCCC | 2 (≈ 3.48 µM)
72 | N#Cc1ccc(NC(=O)c2noc3cc(-c4ccccc4C(F)(F)F)ccc23)c(C(=O)O)c1 | 0.125 (≈ 0.277 µM)
73 | O=C(Nc1ccc(Br)cc1C(=O)O)c1csc(S(=O)(=O)NC2Cc3ccccc3C2)c1 | 8 (≈ 15.3 µM)
74 | COCCn1c(C(=O)Nc2ccc(Br)cc2C(=O)O)cc2ccccc21 | 16 (≈ 38.3 µM)
75 | N#Cc1ccc(NC(=O)c2nc(-c3ccccc3)cs2)c(C(=O)O)c1 | 8 (≈ 22.9 µM)
76 | N#Cc1ccc(NC(=O)c2cc3cccc4c3n2CC/C4=N\OCc2ccccc2)c(C(=O)O)c1 | 0.5 (≈ 1.08 µM)
77 | CC(C)c1ccc(CC(=O)Nc2cccc3cc(C(=O)Nc4ccc(C#N)cc4C(=O)O)[nH]c23)cc1 | 0.5 (≈ 1.04 µM)

Row | Structure (SMILES) | MIC [µg/mL]
78 | Cn1c(C(=O)Nc2ccc(C#N)cc2C(=O)O)cc2cccc(NC(=O)c3ccc(N=[N+]=[N-])c(I)c3)c21 | > 128
79 | N#Cc1ccc(NC(=O)c2cc3cccc(Cl)c3[nH]2)c(C(=O)O)c1 | 1 (≈ 2.94 µM)
80 | CC(=O)OCCCCSc1ccc(C(=O)Nc2ccc(C#N)cc2C(=O)O)cn1 | 0.25 (≈ 0.605 µM)
81 | COc1ccc2cc(C(=O)Nc3ccc(C#N)cc3C(=O)O)n(C)c2c1 | 0.5 (≈ 1.43 µM)
82 | N#Cc1ccc(NC(=O)c2cc3cccc(NC(=O)CCc4ccccc4)c3[nH]2)c(C(=O)O)c1 | 0.5 (≈ 1.11 µM)
83 | N#Cc1ccc(NC(=O)c2cc(CSc3ccncc3)on2)c(C(=O)O)c1 | 1 (≈ 2.63 µM)
84 | CCCCCn1c(C(=O)Nc2ccc(Cl)cc2C(=O)O)cc2ccccc21 | 4 (≈ 10.4 µM)
85 | CCCCOc1ccc2cc(C(=O)Nc3ccc(C#N)cc3C(=O)O)n(C)c2c1 | 16 (≈ 40.9 µM)
86 | N#Cc1ccc(NC(=O)c2cc3cccc(NC(=O)c4ccccc4)c3[nH]2)c(C(=O)O)c1 | 2 (≈ 4.71 µM)
87 | COc1cnc(C(=O)Nc2ccc(C#N)cc2C(=O)O)cn1 | 8 (≈ 26.8 µM)
88 | Cn1c(C(=O)Nc2cccc3cc(C(=O)Nc4ccc(C#N)cc4C(=O)O)n(C)c23)cc2ccccc21 | 0.125 (≈ 0.254 µM)
89 | N#Cc1ccc(NC(=O)c2cnc(CCc3ccccc3)cn2)c(C(=O)O)c1 | 16 (≈ 43 µM)
90 | CCCCn1c(C(=O)Nc2ccc(Cl)cc2C(=O)O)cc2ccccc21 | 4 (≈ 10.8 µM)
91 | O=C(Nc1ccc(Br)cc1C(=O)O)c1cc(-c2ccc(C(F)(F)F)cc2)on1 | 1 (≈ 2.2 µM)
92 | CCOP(=O)(Cc1ccc(NS(=O)(=O)c2cc(C(=O)Nc3ccc(Br)cc3C(=O)O)sc2C)cc1)OCC | 64 (≈ 99.1 µM)
93 | CC(=O)Nc1ccc2cc(C(=O)Nc3ccc(C#N)cc3C(=O)O)n(C)c2c1 | 1 (≈ 2.66 µM)
94 | N#Cc1ccc(NC(=O)c2ccc(SCCCOc3ccc(Br)cc3)nc2)c(C(=O)O)c1 | 0.125 (≈ 0.244 µM)
95 | CN(c1ccc(Cl)cc1)S(=O)(=O)c1cc(C(=O)Nc2ccc(Br)cc2C(=O)O)c[n+]([O-])c1 | 8 (≈ 14.8 µM)
96 | N#Cc1ccc(-c2cnc(C(=O)Nc3ccc(C#N)cc3C(=O)O)o2)cc1 | > 128
97 | CCN(CC)CCN(CC)S(=O)(=O)c1cc(C(=O)Nc2ccc(C#N)cc2C(=O)O)sc1C | 128 (≈ 260 µM)
